In one assay the test system is A549 cells. As to the kind of experiment: Cell growth inhibition assay (CellTiter-Glo) and Bliss synergy analysis. Particulars: Homo sapiens, A549, 168 h; 7 days, estimated from four-parameter curve. Type of assay: cell-based. The procedure: (§1) Cells were seeded in opaque-walled 96-well microplates at appropriate densities according to the growth curves (data no shown). On the following day cells were dosed with compounds. After 7 days treatments, cells viability was measured by adding 30μL CellTiter-Glo reagent (Promega) and incubated for 10 min at RT. Luminescence was measured by Envision plate reader (Perkin Elmer). For synergy analysis, the survival rates of the cells upon different treatment combinations were calculated based on the luminescence and analyzed by Combenefit software. The bliss independence model was used to analyzed the interaction between two tested articles to determine if the interaction between those two tested articles was synergistic, independent or antagonistic.

The test system of a further assay is Daudi cells. The description is as above. It counts as cell-based. The note with it: Homo sapiens, 168 h, 7 days; for IC50: estimated from four-parameter curve. The protocol:
as §1

Another assay deals with KP-4 cells. The assay is described as above. The note with it: Homo sapiens, KP-4, 168 h; 7 days, estimated from four-parameter curve. Type of assay: cell-based. The protocol: as §1
A further assay has as its system MDA-MB-436 cells. Described as above. It counts as cell-based. Particulars: Homo sapiens, MDA-MB-436, 168 h; 7 days, estimated from four-parameter curve. The procedure:
as §1

The next assay relates to MIA PaCa-2 cells. Described as above. Type of assay: cell-based. The note with it: Homo sapiens, MIA PaCa-2, 168 h; 7 days, estimated from four-parameter curve. The procedure: as §1
In another assay the test system is NCI-H23 cells. Described as above. It counts as cell-based. The note with it: Homo sapiens, NCI-H23, 168 h; 7 days, estimated from four-parameter curve. The protocol:
as §1

A further assay deals with HCC15 cells. In words: Cell growth inhibition assay (CellTiter-Glo). Type of assay: cell-based. The note with it: Homo sapiens, HCC15, 168 h; 7 days, estimated from four-parameter curve. The protocol:
as §1

A further assay relates to HCC1937 cells. In words: Cell growth inhibition assay (CellTiter-Glo). Particulars: Homo sapiens, HCC1937, 168 h; 7 days, estimated from four-parameter curve. Type of assay: cell-based. The protocol:
as §1

The next assay has as its system HuP-T4 cells. As to the kind of experiment: Cell growth inhibition assay (CellTiter-Glo). Type of assay: cell-based. Particulars: Homo sapiens, HuP-T4, 168 h; 7 days, estimated from four-parameter curve. The procedure:
as §1

The test system of the next assay is MDA-MB-231 cells. In words: Cell growth inhibition assay (CellTiter-Glo). Type of assay: cell-based. Particulars: Homo sapiens, MDA-MB-231, 168 h; 7 days, estimated from four-parameter curve. The protocol: as §1
A further assay relates to MDA-MB-468 cells. As to the kind of experiment: Cell growth inhibition assay (CellTiter-Glo). Type of assay: cell-based. The note with it: Homo sapiens, MDA-MB-468, 168 h; 7 days, estimated from four-parameter curve. The procedure: as §1
Another assay has as its system NCI-H1563 cells. In words: Cell growth inhibition assay (CellTiter-Glo). Type of assay: cell-based. Particulars: Homo sapiens, NCI-H1563, 168 h; 7 days, estimated from four-parameter curve. The procedure: as §1
The next assay concerns NCI-H526 cells. As to the kind of experiment: Cell growth inhibition assay (CellTiter-Glo). Particulars: Homo sapiens, NCI-H526, 168 h; 7 days, estimated from four-parameter curve. It counts as cell-based. The procedure:
as §1

Another assay concerns Raji cells. As to the kind of experiment: Cell growth inhibition assay (CellTiter-Glo). The note with it: Homo sapiens, 168 h, 7 days, estimated from four-parameter curve. Type of assay: cell-based. The procedure:
as §1

The next assay deals with Z-138 cells. As to the kind of experiment: Cell growth inhibition assay (CellTiter-Glo). It counts as cell-based. Particulars: Homo sapiens, Z-138, 168 h; 7 days, estimated from four-parameter curve. The procedure: as §1
Assay [1] concerns 15 human tumor cell lines. As to the kind of experiment: Cell growth inhibition assay, panel summary. It counts as cell-based. The note with it: lowest to highest, upper end printed as over 25 μM, read-out: IC50 values across the 15 cell lines. The protocol:
as §1

A further assay concerns normal WI-38 cells. As to the kind of experiment: Cell growth inhibition assay, normal cells. The note with it: Homo sapiens, read-out: IC50, normal cell viability. It counts as cell-based. The protocol: as §1
Another assay concerns Daudi xenograft. In words: Daudi xenograft mouse model, tumor growth inhibition. Type of assay: in vivo. The note with it: 2 mg/kg Cisplatin intraperitoneally every week. The procedure:
Daudi xenograft mouse model was established by subcutaneously implantation of 10^7 cells into the female BABL/c nude mice at the age of 6-8 weeks. When tumors reached approximately 100-120 mm^3, the mice were randomly grouped into five groups (n=6) and treated with vehicle control orally every day, 30 mg/kg or 100 mg/kg Cpd-4 orally every day, 2 mg/kg Cisplatin intraperitoneally every week, or combination of 30 mg/kg Cpd-4 and 2 mg/kg Cisplatin. Cpd-4 was formulated in 30% PEG400 (Sigma) and 70% 10% vitamin E TPGS (Sigma) in water. Cisplatin was reconstituted in normal saline. Cpd-4 was administrated starting from Day 0 and Cisplatin was administrated starting from on Day1. Cisplatin was administrated 4 hours after the treatment of Cpd-4 at day 1, 8 and 15. Tumor volume was monitored twice a week.
The long diameter (a) and the short diameter (b) of the tumor were measured using caliper and the tumor volume (v was calculated using the following formula: […]
Tumor growth inhibition was calculated using the formula:
TGI(%)=(1−(Vt(treatment group)−V0(treatment group))/Vt(vehicle group)−V0(vehicle group))×100%
V0 is the tumor volume of the animal when treatment starts; vtis the tumor volume of the animal someday after treatment. The statistics of tumor volume was analyzed by two-way ANOVA followed by Tukey’s multiple comparisons test using GraphPad Prism 8.0.

SMILES strings stand for the structures.

In general, IC50 refers to the midpoint of a concentration-inhibition curve. `O=C(c1cc(Cc2n[nH]c(=O)c3ccccc23)ccc1F)N1CCN(C(=O)C2CC2)CC1` [Olaparib, olaparib]: the half-maximal inhibitory concentration (IC50) in the assay on A549 cells is 17.8 µM; in the assay on Daudi cells it was 5.78 µM; in the assay with KP-4 cells it was 7.09 µM; in the assay with MDA-MB-436 cells, 0.134 µM; in the assay on MIA PaCa-2 cells, 7.16 µM; in the assay with NCI-H23 cells, 3.3 µM. Further, the IC50 in the assay with HCC15 cells was 9.17 µM; in the assay with HCC1937 cells, 10.7 µM; in the assay with HuP-T4 cells, 7.71 µM; in the assay with MDA-MB-231 cells it was 4.92 µM; in the assay with MDA-MB-468 cells it was 5.55 µM; in the assay on NCI-H1563 cells, more than 25 µM. Further, the 50% inhibitory concentration (IC50) in the assay on NCI-H526 cells was 3.91 µM; in the assay with Raji cells, 4.87 µM; in the assay with Z-138 cells it was 1.49 µM; in assay [1] it was 0.134 to 25 µM.
What is called inhibition is the drop in the measured response relative to a control, in per cent. As for `CC(C)OC(=O)Nc1ccc(-c2cnc(C3CCC(NC(=O)OC(C)C)CC3)s2)c(S(=O)(=O)C2CC2)c1` (stereo not shown) [Cpd-2], the 50% inhibitory concentration (IC50) was 3.96 µM with A549 cells; 0.048 µM in the assay with Daudi cells; 3.17 µM in the assay on KP-4 cells; 2.65 µM in the assay on MDA-MB-436 cells; 4.73 µM in the assay on MIA PaCa-2 cells; 3.54 µM in the assay with NCI-H23 cells. In addition, the IC50 in the assay on HCC15 cells was 2.02 µM; in the assay on HCC1937 cells it was 3.29 µM; with HuP-T4 cells, 7.99 µM; in the assay with MDA-MB-231 cells, 5.15 µM; in the assay on MDA-MB-468 cells, 0.63 µM; in the assay on NCI-H1563 cells, 12.8 µM. The IC50 is 0.353 µM in the assay on NCI-H526 cells, 0.164 µM in the assay with Raji cells, 4.57 µM in the assay with Z-138 cells and more than 10 µM in the assay with normal WI-38 cells. For the same compound, the inhibition at 0.25 µM in the assay on Daudi cells (Cpd-2 250 nM) stood at 41.1%.
What is called TGI is the reduction of tumour growth relative to the control group. Turning to `N.N.[Cl][Pt][Cl]` [Cisplatin, cisplatin], the tumour growth inhibition (TGI) in the assay on Daudi xenograft is 20.7%.

Source of the values: publication PMC9136011, “Targeting the Homologous Recombination Pathway in Cancer With a Novel Class of RAD51 Inhibitors” (Frontiers in Oncology, 2022).
